From US6455540B1, “Methods of use of quinolone compounds against anaerobic pathogenic bacteria” (priority 1999, dated 2002)
In brackets after ≈: the same amount, converted by molar mass.

Key:
Clostridium ramosum = settings: prior study (Goldstein, et al.), 14 isolates; cited from earlier work
Bacteroides gracilis = assay: Agar dilution MIC; assay type: cell-based, Bacteroides gracilis (Campylobacter gracilis)
[1] = test system: Clostridium clostridioforme; assay: Agar dilution MIC; assay type: cell-based
[2] = test system: Peptostreptococcus magnus; assay: Agar dilution MIC; assay type: cell-based; settings: Finegoldia magna
[3] = test system: Anaerobiospirillum succiniciproducens; assay: Agar dilution MIC; assay type: cell-based
Clostridium dfficile = assay: Agar dilution MIC; assay type: cell-based, Clostridium difficile
[4] = test system: Peptostreptococcus micros; assay: Agar dilution MIC; assay type: cell-based
[5] = test system: Porphyromonas asaccharolyticus; assay: Agar dilution MIC; assay type: cell-based, Porphyromonas asaccharolytica
[6] = test system: Prevotella melaninogenica; assay: Agar dilution MIC; assay type: cell-based
Fusobacterium varium = assay: Agar dilution MIC; assay type: cell-based
[7] = test system: Fusobacterium spp. group 2; assay: Agar dilution MIC; assay type: cell-based, Fusobacterium mortiferum, necrogenes, ulcerans; settings: Fusobacterium
[8] = test system: Prevotella denticola/loeschii group; assay: Agar dilution MIC; assay type: cell-based
Fusobacterium russii = assay: Agar dilution MIC; assay type: cell-based
B. ovatus = settings: Goldstein, et al.; cited from earlier work
Veillonella spp. = assay: Agar dilution MIC; assay type: cell-based
Porphyromonas spp. = assay: Agar dilution MIC; assay type: cell-based, Porphyromonas cangingivalis, cansulci, circumdentaria, levii
Bacteroides ureolyticus = assay: Agar dilution MIC; assay type: cell-based
[9] = test system: Peptostreptococcus asaccharolyticus; assay: Agar dilution MIC; assay type: cell-based
Porphyromonas canoris = assay: Agar dilution MIC; assay type: cell-based
Bilophila wadsworthia = assay: Agar dilution MIC; assay type: cell-based; settings: 16 isolates; agar supplemented with pyruvate
[10] = Clostridium, read-out: Minimal Inhibitory Concentration 50% (MIC50)
[11] = read-out: Minimal Inhibitory Concentration 50% (MIC50)
[12] = Porphyromonas, read-out: Minimal Inhibitory Concentration 50% (MIC50)
[13] = Porphyromonas, 11 isolates, read-out: Minimal Inhibitory Concentration 90% (MIC90)

Structure (SMILES): CO/N=C1\CN(c2nc3c(cc2F)c(=O)c(C(=O)O)cn3C2CC2)CC1CN (racemic) [Gemifloxacin, (R,S)-7-(3-aminomethyl-4-methoxyiminopyrrolidin-1-yl)-1-cyclopropyl-6-fluoro-4-oxo-1,4-dihydro-1,8-naphthyridine-3-carboxylic acid]
- MIC90 (Clostridium ramosum): 8 µg/mL (≈ 20.5 µM)
- Minimal Inhibitory Concentration 90% (MIC90) (Bacteroides gracilis; 11 isolates): 1 µg/mL
- MIC90 (Bacteroides gracilis; Campylobacter gracilis, 11 isolates, read-out: Minimal Inhibitory Concentration 90% (MIC90)): ≤ 2 µg/mL
- MIC50 (Bacteroides gracilis; Campylobacter gracilis, read-out: Minimal Inhibitory Concentration 50% (MIC50)): ≤ 0.015 µg/mL
- susceptibility to gemifloxacin [1]: relatively susceptible
- Minimal Inhibitory Concentration 90% (MIC90) ([1]; 11 isolates): 1 µg/mL
- MIC90 ([1]; Clostridium, 11 isolates, read-out: Minimal Inhibitory Concentration 90% (MIC90)): ≤ 2 µg/mL
- MIC50 [1, 10]: 0.5 µg/mL (≈ 1.28 µM)
- MIC50 [2, 11]: 0.03 µg/mL (≈ 0.077 µM)
- MIC90 ([2]; 13 isolates, read-out: Minimal Inhibitory Concentration 90% (MIC90)): 0.06 µg/mL (≈ 0.154 µM)
- Minimal Inhibitory Concentration Range ([3]; 3 isolates): 0.5 to 2 µg/mL
- MIC50 ([3]; Anaerobiospirillum succiniciproducens, read-out: Minimal Inhibitory Concentration 50% (MIC50)): 1 µg/mL (≈ 2.57 µM)
- susceptibility to gemifloxacin (Clostridium dfficile): often resistant
- Minimal Inhibitory Concentration 90% (MIC90) (Clostridium dfficile; 14 isolates): >8 µg/mL
- MIC50 (Clostridium dfficile; [10]): 2 µg/mL (≈ 5.14 µM)
- MIC90 (Clostridium dfficile; Clostridium, read-out: Minimal Inhibitory Concentration 90% (MIC90), 14 isolates): ≥ 4 µg/mL
- Minimal Inhibitory Concentration Range ([4]; 12 isolates): 0.06 to 0.125 µg/mL
- MIC50 ([4]; Parvimonas micra, read-out: Minimal Inhibitory Concentration 50% (MIC50)): 0.06 µg/mL (≈ 0.154 µM)
- MIC90 ([4]; Parvimonas micra, 12 isolates, read-out: Minimal Inhibitory Concentration 90% (MIC90)): 0.06 µg/mL (≈ 0.154 µM)
- Minimal Inhibitory Concentration Range ([5]; 11 isolates): 0.06 to 0.125 µg/mL
- MIC50 [5, 12]: 0.06 µg/mL (≈ 0.154 µM)
- MIC90 [5, 13]: 0.125 µg/mL (≈ 0.321 µM)
- Minimal Inhibitory Concentration 90% (MIC90) ([6]; 12 isolates): 8 µg/mL
- MIC90 ([6]; Prevotella melaninogenica, 12 isolates, read-out: Minimal Inhibitory Concentration 90% (MIC90)): ≥ 4 µg/mL
- MIC50 ([6]; Prevotella melaninogenica, read-out: Minimal Inhibitory Concentration 50% (MIC50)): 1 µg/mL (≈ 2.57 µM)
- susceptibility pattern of strains (Fusobacterium varium): bimodal pattern
- MIC50 (Fusobacterium varium; Fusobacterium varium, read-out: Minimal Inhibitory Concentration 50% (MIC50)): > 8 µg/mL
- MIC90 (Fusobacterium varium; Fusobacterium varium, 17 isolates, read-out: Minimal Inhibitory Concentration 90% (MIC90)): > 8 µg/mL
- MIC50 [7, 11]: 4 µg/mL (≈ 10.3 µM)
- MIC90 ([7]; 12 isolates, read-out: Minimal Inhibitory Concentration 90% (MIC90)): 4 µg/mL (≈ 10.3 µM)
- Minimal Inhibitory Concentration Range ([8]; 6 isolates): 0.25 to 8 µg/mL
- MIC50 ([8]; Prevotella denticola, read-out: Minimal Inhibitory Concentration 50% (MIC50)): 0.5 µg/mL (≈ 1.28 µM)
- Minimal Inhibitory Concentration 90% (MIC90) (Fusobacterium russii): >8 µg/mL
- MIC50 (Fusobacterium russii; Fusobacterium russii, read-out: Minimal Inhibitory Concentration 50% (MIC50)): > 8 µg/mL
- MIC90 (Fusobacterium russii; Fusobacterium russii, read-out: Minimal Inhibitory Concentration 90% (MIC90)): ≥ 4 µg/mL
- activity (B. ovatus): only limited activity
- Minimal Inhibitory Concentration 90% (MIC90) (Veillonella spp.; 24 isolates): 8 µg/mL
- MIC90 (Veillonella spp.; Veillonella, 24 isolates, read-out: Minimal Inhibitory Concentration 90% (MIC90)): ≥ 4 µg/mL
- MIC50 (Veillonella spp.; Veillonella, read-out: Minimal Inhibitory Concentration 50% (MIC50)): 1 µg/mL (≈ 2.57 µM)
- Minimal Inhibitory Concentration Range (Porphyromonas spp.; 11 isolates): 0.06 to 0.125 µg/mL
- MIC50 (Porphyromonas spp.; [12]): 0.06 µg/mL (≈ 0.154 µM)
- MIC90 (Porphyromonas spp.; [13]): 0.125 µg/mL (≈ 0.321 µM)
- Minimal Inhibitory Concentration 90% (MIC90) (Bacteroides ureolyticus; 17 isolates): 2 µg/mL
- MIC90 (Bacteroides ureolyticus; Campylobacter ureolyticus, 17 isolates, read-out: Minimal Inhibitory Concentration 90% (MIC90)): ≤ 2 µg/mL
- MIC50 (Bacteroides ureolyticus; Campylobacter ureolyticus, read-out: Minimal Inhibitory Concentration 50% (MIC50)): ≤ 0.015 µg/mL
- Minimal Inhibitory Concentration Range ([9]; 11 isolates): 0.125 to 0.25 µg/mL
- MIC50 ([9]; Peptoniphilus asaccharolyticus, read-out: Minimal Inhibitory Concentration 50% (MIC50)): 0.25 µg/mL (≈ 0.642 µM)
- MIC90 ([9]; Peptoniphilus asaccharolyticus, 11 isolates, read-out: Minimal Inhibitory Concentration 90% (MIC90)): 0.25 µg/mL (≈ 0.642 µM)
- Minimal Inhibitory Concentration Range (Porphyromonas canoris; 10 isolates): 0.06 to 0.25 µg/mL
- MIC50 (Porphyromonas canoris; Porphyromonas canoris, read-out: Minimal Inhibitory Concentration 50% (MIC50)): 0.25 µg/mL (≈ 0.642 µM)
- MIC90 (Porphyromonas canoris; Porphyromonas canoris, 10 isolates, read-out: Minimal Inhibitory Concentration 90% (MIC90)): 0.25 µg/mL (≈ 0.642 µM)
- Minimal Inhibitory Concentration 90% (MIC90) (Bilophila wadsworthia): 4 µg/mL
